Measured values taken from patent US9051310B2, “Nicotinamide derivative or salt thereof” (FUJIFILM Corporation, priority 2011, dated 2015).

Key:
[1] = target: T1, glutathione S-transferase (GST)-linked full-length human Syk protein (Homo sapiens, UniProt P43405); assay: Syk enzyme assay; format: biochemical; details: 0.83 nM Syk, time-resolved fluorescence; read-out: IC50 of Syk-inhibitory activity
T1 construct: glutathione S-transferase (GST)-linked full-length human Syk protein; purchased Carna Biosciences; host or cells: Baculovirus expression system
Procedure, shortened: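 Phosphotyrosine on a biotin-peptide substrate (0.5 μM) was read by time-resolved fluorescence at 615 and 665 nm with Eu-anti-pTyr antibody and APC-streptavidin after 1 h EDTA stop.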

[2] = tested on: THP-1 cells (TNFα secretion on human IgG-coated plate); assay: TNFα generation assay; format: cell-based; details: IFN-γ differentiated THP-1 cells, 7 hours, AlphaLISA, read-out: IC50 of TNFα generation inhibitory activity
Method: THP-1 cells (2×10^5 cells/ml), which were human monocytoid cells, were cultured in the presence of 10 ng/ml IFN-γ (Roche) for 2 days, and they were induced to differentiate into macrophage-like cells. The differentiation-induced THP-1 cells were recovered, and the cells (1×10^6 cell/ml) were then allowed to react with a predetermined concentration of test compound at room temperature for 30 minutes. On the other hand, 100 μl of human IgG (10 μg/ml, SIGMA-ALDRICH) diluted with PBS was added to a 96-well plate, and it was then incubated at room temperature overnight. Thereafter, the resultant was washed with PBS twice to produce a human IgG-coated plate. A cell fluid that contained a compound was plated on the obtained human IgG-coated plate (5×10^4 cells/well), and it was then cultured for 7 hours. Thereafter, the cultured solution was recovered, and the amount of TNFα secreted into the culture solution was then measured by the AlphaLISA method (PerkinElmer).

| SMILES | IC50 [1] | IC50 [2] |
| --- | --- | --- |
| CC[C@H](N)[C@@H](C)Nc1nc(Nc2ccc3cnn(C)c3c2)c(C(N)=O)cc1F [Example 2-39, 6-(((2R,3S)-3-aminopentan-2-yl)amino)-5-fluoro-2-((1-methyl-1H-indazol-6-yl)amino)nicotinamide] | < 10 nM | < 65 nM |
| CC[C@H](N)[C@@H](C)Nc1nc(Nc2cncc(C3CC3)c2)c(C(N)=O)cc1F [Example 2-41, 6-(((2R,3S)-3-aminopentan-2-yl)amino)-2-((5-cyclopropylpyridin-3-yl)amino)-5-fluoronicotinamide] | < 10 nM | 65 to 130 nM |
| CC[C@H](N)[C@@H](C)Nc1nc(Nc2ccnc(OCCOC)c2)c(C(N)=O)cc1F [Example 2-42, 6(((2R,3S)-3-aminopentan-2-yl)amino)-5-2-((2-(2-methoxyethoxy)pyridin-4-yl)amino)nicotinamide] | 10 to 50 nM | 65 to 130 nM |
| CC[C@H](N)[C@@H](CC)Nc1nc(Nc2ccnc(OCCOC)c2)c(C(N)=O)cc1F [Example 2-43, 6-(((3R,4S)-4-aminohexan-3-yl)amino)-5-fluoro-2-((2-(2-methoxyethoxy)pyridin-4-yl)amino)nicotinamide] | < 10 nM | 130 to 200 nM |
| Cc1cc(C)cc(Nc2nc(N[C@H](C3CC3)[C@H](C)N)c(F)cc2C(N)=O)c1 [Example 2-45, 6-(((1R,2S)-2-amino-1-cyclopropylpropyl)amino)-2-((3,5-dimethylphenyl)amino)-5-fluoronicotinamide] | < 10 nM | 130 to 200 nM |
| COc1cccc(Nc2nc(N[C@H](C3CC3)[C@H](C)N)c(F)cc2C(N)=O)c1 [Example 2-46, 6-(((1R,2S)-2-amino-1-cyclopropylpropyl)amino)-5-fluoro-2-((3-methoxyphenyl)amino)nicotinamide] | < 10 nM | 65 to 130 nM |
| COc1cc(Nc2nc(N[C@H](C3CC3)[C@H](C)N)c(F)cc2C(N)=O)cc(OC)c1 [Example 2-47, 6-(((1R,2S)-2-amino-1-cyclopropylpropyl)amino)-2-((3,5-dimethoxyphenyl)amino)-5-fluoronicotinamide] | < 10 nM | 65 to 130 nM |
| COc1cc(Nc2nc(N[C@H](C3CC3)[C@H](C)N)c(F)cc2C(N)=O)ccc1C [Example 2-49, 6-(((1R,2S)-2-amino-1-cyclopropylpropyl)amino)-5-fluoro-2-((3-methoxy-4-methylphenyl)amino)nicotinamide] | < 10 nM | 130 to 200 nM |
| COc1nn(CC(F)F)c2ccc(Nc3nc(N[C@H](CC(C)C)[C@H](C)N)c(F)cc3C(N)=O)cc12 [Example 2-54, 6-(((2S,3R)-2-amino-5-methylhexan-3-yl)amino)-2-((1-(2,2-difluoroethyl)-3-methoxy-1H-indazol-5-yl)amino)-5-fluoronicotinamide] | < 10 nM | 130 to 200 nM |
| CC[C@@H](Nc1nc(Nc2ccc3onc(OC)c3c2)c(C(N)=O)cc1F)[C@H](C)N [Example 2-57, 6-(((2S,3R)-2-aminopentan-3-yl)amino)-5-fluoro-2-((3-methoxybenzo[d]isoxazol-5-yl)amino)nicotinamide] | < 10 nM | 65 to 130 nM |
| C[C@H](N)[C@H](Nc1nc(Nc2ccc(F)cc2)c(C(N)=O)cc1F)C1CC1 [Example 2-58, 6-(((1R,2S)-2-amino-1-cyclopropylpropyl)amino)-5-fluoro-2-((4-fluorophenyl)amino)nicotinamide] | 10 to 50 nM | 130 to 200 nM |
| NC(=O)c1cc(F)c(N[C@@H]2CCCC[C@@H]2N)nc1Nc1cnc(-n2nccn2)c(F)c1 [Example 2-67, 6-(((1R,2S)-2-aminocyolohexyl)amino)-5-fluoro-2-((5-fluoro-6-(2H-1,2,3-triazol-2-yl)pyridin-3-yl)amino)nicotinamide] | 10 to 50 nM | 130 to 200 nM |
| CCCC[C@@H](Nc1nc(Nc2cncc(-n3cccn3)c2)c(C(N)=O)cc1F)[C@H](C)N [Example 2-69, 2-((5-(1H-pyrazol-1-yl)pyridin-3-yl)amino)-6-(((2S,3R)-2-aminoheptan-3-yl)amino)-5-fluoronicotinamide] | 10 to 50 nM | 130 to 200 nM |
| C[C@H](N)[C@H](Nc1nc(Nc2ccc3c(cnn3CC(F)F)c2)c(C(N)=O)cc1F)C1CC1 [Example 2-71] | < 10 nM | < 65 nM |
| C[C@H](N)[C@H](Nc1nc(Nc2ccc3c(c2)c(N(C)C)nn3C)c(C(N)=O)cc1F)C1CC1 [Example 2-72, 6-(((1R,2S)-2-amino-1-cyclopropylpropyl)amino)-2-((3-(dimethylamino)-1-methyl-1H-indazol-5-yl)amino)-5-fluoronicotinamide] | < 10 nM | 130 to 200 nM |
| CCn1nc(OC)c2cc(Nc3nc(N[C@H](C4CC4)[C@H](C)N)c(F)cc3C(N)=O)ccc21 [Example 2-73, 6-(((1R,2S)-2-amino-1-cyclopropylpropyl)amino)-2-((1-ethyl-3-methoxy-1H-indazol-5-yl)amino)-5-fluoronicotinamide] | < 10 nM | 130 to 200 nM |
| C[C@H](N)[C@H](Nc1nc(Nc2cccc3c2cnn3CC(F)F)c(C(N)=O)cc1F)C1CC1 [Example 2-75, 6-(((1R,2S)-2-amino-1-cyclopropylpropyl)amino)-2-((1-(2,2-difluoroethyl)-1H-indazol-4-yl)amino)-5-fluoronicotinamide] | < 10 nM | 130 to 200 nM |
| COc1nn(C)c2ccc(Nc3nc(N[C@@H](CN)CC(C)C)c(F)cc3C(N)=O)cc12 [Example 2-78, (R)-6-((1-amino-4-methylpentan-2-yl)amino)-5-fluoro-2-((3-methoxy-1-methyl-1H-indazol-5-yl)amino)nicotinamide] | < 10 nM | 65 to 130 nM |
| COc1nn(C)c2ccc(Nc3nc(N[C@@H](CN)CC4CC4)c(F)cc3C(N)=O)cc12 [Example 2-79, (R)-6-((1-amino-3-cyclopropylpropan-2-yl)amino)-5-fluoro-2-((3-methoxy-1-methyl-1H-indazol-5-yl)amino)nicotinamide] | < 10 nM | 130 to 200 nM |
| CCC[C@@H](Nc1nc(Nc2ccc3c(c2)c(OC)nn3C)c(C(N)=O)cc1F)[C@H](C)N [Example 2-80, 6-(((2S,3R)-2-aminohexan-3-yl)amino)-5-fluoro-2-((3-methoxy-1-methyl-1H-indazol-5-yl)amino)nicotinamide] | < 10 nM | 65 to 130 nM |
| COc1nn(C)c2ccc(Nc3nc(N[C@H](C4CCC4)[C@H](C)N)c(F)cc3C(N)=O)cc12 [Example 2-82, 6-(((1R,2S)-2-amino-1-cyclobutylpropyl)amino)-5-fluoro-2-((3-methoxy-1-methyl-1H-indazol-5-yl)amino)nicotinamide] | < 10 nM | 130 to 200 nM |
| CCCC[C@@H](Nc1nc(Nc2ccc3c(c2)c(OC)nn3C)c(C(N)=O)cc1F)[C@H](C)N [Example 2-83, 6-(((2S,3R)-2-aminoheptan-3-yl)amino)-5-fluoro-2-((3-methoxy-1-methyl-1H-indazol-5-yl)amino)nicotinamide] | < 10 nM | 130 to 200 nM |
| CC[C@H](N)[C@@H](C)Nc1nc(Nc2ccc3c(c2)c(OC)nn3C)c(C(N)=O)cc1F [Example 2-84, 6-(((2R,3S)-3-aminopentan-2-yl)amino)-5-fluoro-2-((3-methoxy-1-methyl-1H-indazol-5-yl)amino)nicotinamide] | < 10 nM | 130 to 200 nM |
| CC[C@H](N)[C@@H](CC)Nc1nc(Nc2cccc3c2cnn3CC)c(C(N)=O)cc1F [Example 2-101, 6-(((3R,4S)-4-aminohexan-3-yl)amino)-2-((1-ethyl-1H-indazol-4-yl)amino)-5-fluoronicotinamide] | < 10 nM | 130 to 200 nM |
| CC(C)[C@@H](Nc1nc(Nc2ccc3ncccc3c2)c(C(N)=O)cc1F)[C@H](C)N [Example 2-106, 6-(((2S,3R)-2-amino-4-methylpentan-3-yl)amino)-5-fluoro-2-(quinolin-6-ylamino)nicotinamide] | 10 to 50 nM | 130 to 200 nM |
| CCn1ncc2c(Nc3nc(N[C@H](COC)[C@H](C)N)c(F)cc3C(N)=O)cccc21 [Example 2-122, 6-(((2S,3S)-3-amino-1-methoxybutan-2-yl)amino)-2-((1-ethyl-1H-indazol-4-yl)amino)-5-fluoronicotinamide] | 10 to 50 nM | 130 to 200 nM |
| CC[C@@H](Nc1nc(Nc2ccc3c(c2)c(OC)nn3CCOC)c(C(N)=O)cc1F)[C@H](C)N [Example 2-125, 6-(((2S,3R)-2-aminopentan-3-yl)amino)-5-fluoro-2-((3-methoxy-1-(2-methoxyethyl)-1H-indazol-5-yl)amino)nicotinamide] | < 10 nM | 65 to 130 nM |
| CC[C@H](N)[C@@H](C)Nc1nc(Nc2ccc3c(c2)c(OC)nn3CCOC)c(C(N)=O)cc1F [Example 2-129, 6-(((2R,3S)-3-aminopentan-2-yl)amino)-5-fluoro-2-((3-methoxy-1-(2-methoxyethyl)-1H-indazol-5-yl)amino)nicotinamide] | 10 to 50 nM | 130 to 200 nM |
| COCCn1nc(C)c2cc(Nc3nc(N[C@@H](CN)CC(C)C)c(F)cc3C(N)=O)ccc21 [Example 2-130] | < 10 nM | 65 to 130 nM |
